Test results taken from patent US20070185162A1, “Substituted diketopiperazines as oxytocin receptor antagonists” (Koninklijke Philips Electronics, N.V., priority 2004, published 2007).

Target: T1, human Oxytocin-1 (hOT) receptor (Homo sapiens, UniProt P30559)
T1 construct: expressed in transfected cells
T1 sequence (P30559 1-389): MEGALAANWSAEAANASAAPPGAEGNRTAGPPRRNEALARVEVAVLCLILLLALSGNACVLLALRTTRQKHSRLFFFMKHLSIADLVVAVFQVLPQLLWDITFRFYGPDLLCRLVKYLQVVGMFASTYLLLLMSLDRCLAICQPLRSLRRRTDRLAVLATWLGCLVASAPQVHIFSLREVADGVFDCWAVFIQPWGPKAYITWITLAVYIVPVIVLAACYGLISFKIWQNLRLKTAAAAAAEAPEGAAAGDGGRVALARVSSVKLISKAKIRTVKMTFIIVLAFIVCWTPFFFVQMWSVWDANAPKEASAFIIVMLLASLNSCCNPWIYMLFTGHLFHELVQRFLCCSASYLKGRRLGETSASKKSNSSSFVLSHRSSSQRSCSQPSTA
Experiment: Determination of antagonist affinity at human Oxytocin-1 receptors using FLIPR (Assay 1)
Format: cell-based
Conditions: CHO-hOT cells, [Ca2+]i response to oxytocin (EC80); mean, n>=3; read-out: hOT FLIPR fpKi mean
Procedure: Determination of Antagonist Affinity at Human Oxytocin-1 Receptors Using FLIPR
Adherent Chinese Hamster Ovary (CHO) cells, stably expressing the recombinant human Oxytocin-1 (hOT) receptor, were maintained in culture in DMEM:F12 medium (Sigma, cat no D6421), supplemented with 10% heat inactivated foetal calf serum (Gibco/Invitrogen, cat. no. 01000-147), 2 mM L-glutamine (Gibco/Invitrogen, cat. no. 25030-024) and 0.2 mg/ml G418 (Gibco/Invitrogen, cat no. 10131-027). Cells were grown as monolayers under 95%:5% air:CO2 at 37° C. and passaged every 3-4 days using TrypLE™ Express (Gibco/Invitrogen, cat no. 12604-013).
Measurement of [Ca^2+]i Using the FLIPR™
CHO-hOT cells were seeded into black walled clear-base 384-well plates (Nunc) at a density of 10,000 cells per well in culture medium as described above and maintained overnight (95%:5% air:CO2 at 37° C.). After removal of culture medium, cells were incubated for 1 h at 37° C. in Tyrode's medium (NaCl, 145 mM; KCl, 2.5 mM; HEPES, 10 mM; Glucose, 10 mM; MgCl2, 1.2 mM; CaCl2, 1.5 mM) containing probenacid (0.7 mg/ml), the cytoplasmic calcium indicator, Fluo-4 (4 uM; Teflabs, USA) and the quenching agent Brilliant Black (250 uM; Molecular Devices, UK). Cells were then incubated for an additional 30 min at 37° C. with either buffer alone or buffer containing OT antagonist, before being placed into a FLIPR™ (Molecular Devices, UK) to monitor cell fluorescence (λex=488 nm, λEM=540 nm) before and after the addition of a submaximal concentration of oxytocin (EC80).
Functional responses using FLIPR were analysed using Activity Base Version 5.0.10. Data are reported as mean values, wherein number of times tested (n) is greater than or equal to 3.

| Ki [nM] | Compound |
| --- | --- |
| 0.501 to 1.58 | CCC(CC)[C@@H]1C(=O)N[C@H](C2Cc3ccccc3C2)C(=O)N1[C@@H](C(=O)N(C)C)c1ccc(C)nc1 [Example 2, (2R)-2-[(3R,6R)-3-(2,3-Dihydro-1H-inden-2-yl)-6-(1-ethylpropyl)-2,5-dioxo-1-piperazinyl]-N,N-dimethyl-2-(6-methyl-3-pyridinyl)ethanamide] |
| 2 to 6.31 | CCC(CC)[C@@H]1C(=O)N[C@H](C2Cc3ccccc3C2)C(=O)N1[C@@H](C(=O)NC)c1ccc(C)nc1 [Example 1, (2R)-2-[(3R,6R)-3-(2,3-Dihydro-1H-inden-2-yl)-6-(1-ethylpropyl)-2,5-dioxo-1-piperazinyl]-N-methyl-2-(6-methyl-3-pyridinyl)ethanamide] |
| ≤ 0.398 | CCC(CC)[C@@H]1C(=O)N[C@H](C2Cc3ccccc3C2)C(=O)N1[C@@H](C(=O)N1CCOCC1)c1ccc(C)nc1C [Example 5, (3R,6R)-3-(2,3-Dihydro-1H-inden-2-yl)-1-[(1R)-1-(2,6-dimethyl-3-pyridinyl)-2-(4-morpholinyl)-2-oxoethyl]-6-(1-ethylpropyl)-2,5-piperazinedione] |
| 0.501 to 1.58 | CCC(CC)[C@@H]1C(=O)N[C@H](C2Cc3ccccc3C2)C(=O)N1[C@@H](C(=O)N(C)C)c1ccc(C)nc1C [Example 4, (2R)-2-[(3R,6R)-3-(2,3-Dihydro-1H-inden-2-yl)-6-(1-ethylpropyl)-2,5-dioxo-1-piperazinyl]-2-(2,6-dimethyl-3-pyridinyl)-N,N-dimethylethanamide] |
| ≤ 0.398 | CCC(CC)[C@@H]1C(=O)N[C@H](C2Cc3ccccc3C2)C(=O)N1[C@@H](C(=O)N1CCOCC1)c1ccc2c(cnn2C)c1 [Example 8, (3R,6R)-3-(2,3-Dihydro-1H-inden-2-yl)-6-(1-ethylpropyl)-1-[(1R)-1-(1-methyl-1H-indazol-5-yl)-2-(4-morpholinyl)-2-oxoethyl]-2,5-piperazinedione] |
| ≤ 0.398 | CCC(CC)[C@@H]1C(=O)N[C@H](C2Cc3ccccc3C2)C(=O)N1[C@@H](C(=O)N(C)C)c1ccc2c(cnn2C)c1 [Example 7, (2R)-2-[(3R,6R)-3-(2,3-Dihydro-1H-inden-2-yl)-6-(1-ethylpropyl)-2,5-dioxo-1-piperazinyl]-N,N-dimethyl-2-(1-methyl-1H-indazol-5-yl)ethanamide] |
| 0.501 to 1.58 | CCC(CC)[C@@H]1C(=O)N[C@H](C2Cc3ccccc3C2)C(=O)N1[C@@H](C(=O)NC)c1ccc(C)nc1C [Example 3, (2R)-2-[(3R,6R)-3-(2,3-Dihydro-1H-inden-2-yl)-6-(1-ethylpropyl)-2,5-dioxo-1-piperazinyl]-2-(2,6-dimethyl-3-pyridinyl)-N-methylethanamide] |
| 0.501 to 1.58 | CCC(CC)[C@@H]1C(=O)N[C@H](C2Cc3ccccc3C2)C(=O)N1[C@@H](C(=O)N1CCOCC1)c1coc(C)n1 [Example 9, (3R,6R)-3-(2,3-Dihydro-1H-inden-2-yl)-6-(1-ethylpropyl)-1-[(1R)-1-(2-methyl-1,3-oxazol-4-yl)-2-(4-morpholinyl)-2-oxoethyl]-2,5-piperazinedione] |
| 7.94 to 25.1 | Cc1ccc([C@H](C(=O)N(C)C)N2C(=O)[C@@H](C3Cc4ccccc4C3)NC(=O)[C@H]2CC(C)C)cn1 [Comparator X, (2R)-2-[(3R,6R)-3-(2,3-dihydro-1H-inden-2-yl)-6-isobutyl-2,5-dioxopiperazin-1-yl]-N,N-dimethyl-2-(6-methylpyridin-3-yl)ethanamide, reference compound] |
| ≤ 0.398 | CCC(CC)[C@@H]1C(=O)N[C@H](C2Cc3ccccc3C2)C(=O)N1[C@@H](C(=O)NC)c1ccc2c(cnn2C)c1 [Example 6, (2R)-2-[(3R,6R)-3-(2,3-Dihydro-1H-inden-2-yl)-6-(1-ethylpropyl)-2,5-dioxo-1-piperazinyl]-N-methyl-2-(1-methyl-1H-indazol-5-yl)acetamide] |
| 31.6 to 100 | Cc1nc([C@H](C(=O)N2CCOCC2)N2C(=O)[C@@H](C3Cc4ccccc4C3)NC(=O)[C@H]2CC(C)C)co1 [Comparator Y, (3R,6R)-3-(2,3-dihydro-1H-inden-2-yl)-1-[(1R)-1-(2-methyl-1,3-oxazol-4-yl)-2-(4-morpholinyl)-2-oxoethyl]-6-(2-methylpropyl)-2,5-piperazinedione, reference compound] |
